In patent US6743822B2, “Reduction of hair growth” (The Gillette Company, priority 2001, dated 2004):
Several values for one entry are separate records, joined by “and”; a condition that tells them apart may be missing. Equal entries are not always repeated. Entries after “also recorded” stand apart in the source; their conditions may differ.

Experiments:
[1] = test system: flank organ hair regrowth of Golden Syrian hamsters; test: Golden Syrian Hamster visual efficacy assay; assay type: in vivo; conditions: dose 2%; for Number of animals demonstrating maximal efficacy (observation score of +3) after full three weeks of treatment / Percent of animals demonstrating maximal efficacy (observation score of +3) after full three weeks of treatment: vehicle of Example 2; for Number of animals demonstrating efficacy (score of +1 or greater) after two weeks of treatment / Percent of animals demonstrating efficacy (score of +1 or greater) after two weeks of treatment: vehicle of Example 2, blinded visual score
Excerpt: Male intact Golden Syrian hamsters are considered acceptable models for human beard hair growth in that they display oval shaped flank organs, one on each side, each about 8 mm. in major diameter. These organs produce fine light colored hair typical of the animal pelage found on the body. In response to androgens the flank organs produce dark coarse hair similar to male human beard hair. To evaluate the effectiveness of a composition, the flank organs of each of a group of hamsters are depilated by applying a thioglycolate-based chemical depilatory (Surgex) and/or shaved. To one organ of each animal 10 μl of vehicle alone once a day is applied, while to the other organ of each animal an equal amount of vehicle containing substantially optically pure L-DFMO, substantially optically pure D-DFMO, racemic DFMO, or non-racemic DFMO including a preponderance of L-DFMO. After thirteen applications (one application per day for five days a week), the flank organs are shaved and the amount of recovered hair (hair mass) from each is weighed. For certain experiments, where indicated, the treatment period was for less than 13 applications. The reduced treatment period allowed for determination of onset in activity. Percent-reduction of hair growth is calculated by subtracting the hair mass (mg) value of the test compound treated side from the hair mass value of the vehicle treated side; the delta value obtained is then divided by the hair mass value of the vehicle treated side, and the resultant number is multiplied by 100. Visual evaluations comparing hair regrowth between the drug treated and the vehicle control site were made generally on day-8, day-15 and on day-19. These observations provide an identification of onset in activity (and thus efficacy). The assay in a ‘blinded’ study included visual observations comparing the regrowth of hair on the DFMO treated flank organ with the vehicle treated flank organ during the course of treatment. Scores were assigned from 0 to +3. 0, no difference; +1, DFMO treated shorter than vehicle treated indicating efficacy; +2, DFMO treated much shorter than vehicle treated; +3, DFMO treated nearly bald indicating maximal efficacy. […] This assay will be referred to herein as the “Golden Syrian Hamster visual efficacy” assay.

[2] = test system: Human hair follicles in culture (facial skin); test: Human Hair Follicle Growth assay; assay type: cell-based; conditions: 0.5 mM, seven days in culture
Procedure: Hair follicles were isolated from human facial (obtained from patients who underwent face lift surgery) skin samples using fine forceps under a dissecting microscope and grown in tissue culture Williams E medium—supplemented with insulin (10 μg/ml), glutamine (2 mM), hydrocortisone ([…]) and antibiotics/antimycotics (pen/strep). Hair lengths were determined on day 0, and day 7. Human hair follicles in culture were treated with 0.5 mM concentration of L-DFMO, D-DFMO, D,L-DFMO. Controls were cultured in Williams E tissue culture medium without DFMO. The increase in hair fiber length was determined over seven days. […] Only L-DFMO produced statistically significant reduction in hair growth (p=0.003) in this time period. […] The “P” values, as determined by paired test analysis, were 0.97, 0.78 and 0.003 for the D,L-DFMO, D-DFMO and L-DFMO, respectively.

[3] = test system: flank organs (hair growth) of Golden Syrian hamsters; test: Twice a Week Golden Syrian Hamster assay; assay type: in vivo; conditions: dose 1%, 2×/wk, vehicle of Example 2
Excerpt: Male intact Golden Syrian hamsters are considered acceptable models for human beard hair growth in that they display oval shaped flank organs, one on each side, each about 8 mm. in major diameter. These organs produce fine light colored hair typical of the animal pelage found on the body. In response to androgens the flank organs produce dark coarse hair similar to male human beard hair. To evaluate the effectiveness of a composition, the flank organs of each of a group of hamsters are depilated by applying a thioglycolate-based chemical depilatory (Surgex) and/or shaved. To one organ of each animal 10 μl of vehicle alone once a day is applied, while to the other organ of each animal an equal amount of vehicle containing substantially optically pure L-DFMO, substantially optically pure D-DFMO, racemic DFMO, or non-racemic DFMO including a preponderance of L-DFMO. After thirteen applications (one application per day for five days a week), the flank organs are shaved and the amount of recovered hair (hair mass) from each is weighed. For certain experiments, where indicated, the treatment period was for less than 13 applications. The reduced treatment period allowed for determination of onset in activity. Percent-reduction of hair growth is calculated by subtracting the hair mass (mg) value of the test compound treated side from the hair mass value of the vehicle treated side; the delta value obtained is then divided by the hair mass value of the vehicle treated side, and the resultant number is multiplied by 100. Visual evaluations comparing hair regrowth between the drug treated and the vehicle control site were made generally on day-8, day-15 and on day-19. These observations provide an identification of onset in activity (and thus efficacy). The Golden Syrian Hamster assay was modified so that the animals received a reduced treatment frequency with DFMO, namely twice per week instead of five times a week.

[4] = test system: flank organs (hair growth) of male intact Golden Syrian hamsters; test: Golden Syrian Hamster assay (flank organ hair mass); assay type: in vivo; conditions: dose 0.3%, topical; for Hair Mass in mg (drug treated): vehicle of Example 2, thirteen applications; for Percent inhibition (hair mass): vehicle of Example 2, versus vehicle treated flank organ
Excerpt: Male intact Golden Syrian hamsters are considered acceptable models for human beard hair growth in that they display oval shaped flank organs, one on each side, each about 8 mm. in major diameter. These organs produce fine light colored hair typical of the animal pelage found on the body. In response to androgens the flank organs produce dark coarse hair similar to male human beard hair. To evaluate the effectiveness of a composition, the flank organs of each of a group of hamsters are depilated by applying a thioglycolate-based chemical depilatory (Surgex) and/or shaved. To one organ of each animal 10 μl of vehicle alone once a day is applied, while to the other organ of each animal an equal amount of vehicle containing substantially optically pure L-DFMO, substantially optically pure D-DFMO, racemic DFMO, or non-racemic DFMO including a preponderance of L-DFMO. After thirteen applications (one application per day for five days a week), the flank organs are shaved and the amount of recovered hair (hair mass) from each is weighed. For certain experiments, where indicated, the treatment period was for less than 13 applications. The reduced treatment period allowed for determination of onset in activity. Percent-reduction of hair growth is calculated by subtracting the hair mass (mg) value of the test compound treated side from the hair mass value of the vehicle treated side; the delta value obtained is then divided by the hair mass value of the vehicle treated side, and the resultant number is multiplied by 100. Visual evaluations comparing hair regrowth between the drug treated and the vehicle control site were made generally on day-8, day-15 and on day-19. These observations provide an identification of onset in activity (and thus efficacy). The above-described assay will be referred to herein as the “Golden Syrian Hamster” assay The efficacy of DFMO-containing compositions containing greater than 90% L-DFMO (“L-DFMO” for purposes of the below assays), racemic DFMO (“D,L-DFMO”), and greater than 90% D-DFMO (or “D-DFMO” for purposes of the below assays) was determined using the Golden Syrian Hamster assay. The L-DFMO produced a substantially greater hair mass reduction than the D-DFMO or D,L-DFMO (Table 1). The average inhibition at the 0.3% dose for the L-, D- and D,L-DFMO was 43±6%, 19±11% and 25±9%, respectively.

[5] = test system: Hamster flank organ hair follicles; test: Golden Syrian Hamster hair follicle spatial mass assay (image analysis); assay type: in vivo
Procedure: (§1) Hamster flank organs were treated topically with D,L-DFMO or L-DFMO with the contra-lateral side treated with the carrier vehicle without DFMO. Animals were sacrificed at the indicated time-point (4 days or 7 days) and back skins containing the flank organ were removed for analysis. Glycerin was applied to the underside of the dorsal skin of the hamster flank organ regions. Flank organ hair follicle mass and density were assessed, by imaging the region with a digital camera, and analysis of the images was performed with Ultimage/Pro (version 2.5) software by […]. This technique permitted the quantification of hair follicle mass based on particle area and number, and hair follicle density based on particle number.

[6] = test system: Hamster flank organ hair follicles; test: Golden Syrian Hamster hair follicle density assay (image analysis); assay type: in vivo; conditions: 7 days, dose 0.5%, vehicle of Example 2
Procedure: as §1

[7] = 4 Days, dose 1%, vehicle of Example 2
[8] = 7 Days, dose 0.5%, vehicle of Example 2 (Table 5)
[9] = 7 days, dose 0.5%, vehicle of Example 2

SMILES	Number of animals demonstrating maximal efficacy (observation score of +3) after full three weeks of treatment [1]	Percent of animals demonstrating maximal efficacy (observation score of +3) after full three weeks of treatment [1] [%]	Number of animals demonstrating efficacy (score of +1 or greater) after two weeks of treatment [1]	Percent of animals demonstrating efficacy (score of +1 or greater) after two weeks of treatment [1] [%]	Percent of animals demonstrating efficacy (score of +1 or greater) after two weeks of treatment ([1]; listed as D, L-DFMO) [%]	Percent of animals demonstrating maximal efficacy (observation score of +3) after full three weeks of treatment ([1]; listed as racemic DFMO) [%]	inhibition at 500 µM ([2]; Homo sapiens, 168 h, read-out: hair follicle growth inhibition (increase in hair fiber length, as compared to controls)) [%]	Hair Mass in mg (drug treated) [3] [mg]	Hair Mass in mg (drug treated) [4] [mg]	Percent inhibition (hair mass) [4] [%]	Hair follicle mass as determined by image analysis: particle area (×10^6), Treated [5, 7]	Inhibition % of hair follicle mass [5, 7]	Inhibition % of hair follicle mass [5, 8]	Hair follicle mass as determined by image analysis: particle area (×10^6), Treated [5, 9]	% Inhibition of Hair Follicle Density [6]	hair follicle growth inhibition (increase in hair fiber length, as compared to controls) [2] [%]	hair follicle mass reduction, fold greater than by D,L-DFMO ([5]; 0.5% dose, 7 days (Table 5)) [fold]	increase in efficacy (hair follicle spatial mass), fold versus D,L-DFMO ([5]; 0.5% dose, 7 days, another assay (Table 6)) [fold]	hair follicle mass reduction, fold greater than by D,L-DFMO ([5]; 1% dose, 4 days) [fold]	% Inhibition of Hair Follicle Mass ([5]; 7 days, dose 0.5%, another assay (Table 6))
NCCC[C@](N)(C(=O)O)C(F)F (racemic) [D,L-DFMO, α-Difluoromethylornithine]	1 out of 8	13	3 out of 8	38	38	13	1 ± 12	1.74 ± 0.18	1.53 ± 0.19	25±9	4.89 ± 0.9 ×10^6	20% and 20 ± 9%	15% and 15 ± 13%	2.71 ± .71 ×10^6	no effect; also recorded: No Inhibition	–	–	–	–	–
NCCC[C@@](N)(C(=O)O)C(F)F [D-DFMO]	0 out of 8	–	2 out of 8	25	–	–	–	1.80 ± 0.18	1.39 ± 0.12	19±11	–	–	–	–	–	4±13	–	–	–	–
NCCC[C@](N)(C(=O)O)C(F)F [L-DFMO, L-α-difluoromethylornithine]	5 out of 8	–	7 out of 8	–	–	–	–	1.83 ± 0.38	1.06 ± 0.14	43±6	4.23 ± 1.1 ×10^6	43% and 43 ± 9%	58% and 58 ± 11%	2.22 ± .94 ×10^6	45% and 45 ± 5%	36±12	~4	~4	2	41% and 41 ± 15%
